Laboratory results from US20240173289A1, “USE OF OXYMETHYL-MODIFIED DERIVATIVE OF QUERCETIN IN PREPARATION OF DRUG FOR INHIBITING TUMOR CELL PROLIFERATION” (ZHEJIANG UNIVERSITY, priority 2021, published 2024).
In brackets after ≈: the same amount, converted by molar mass.

How the values were obtained:
Format in all cases: cell-based
mouse glioma BV2 = test: scratch closure test; details: 4 mg/L, 24 h
Description: Cells with a certain density (6×10^5 cells per mL for AGS, T47D, Caco2, BCPAP, GES, HUVEC; 5×10^5 cells per mL for HepG2, MDA-MB-231, BGC-823, A549, PC3, L02; 3×10^5 cells per mL for 143B, HOS, U2, SGC-7901, Hela, BV-2; and 1.8×10^6 cells per mL for WI-38) were spread on a 6-well plate (1 mL per well), added with a DMEM medium containing 10% fetal calf serum, and cultured overnight to form a monolayer of cells. A horizontal scratch was scratched on the monolayer of cells with a pipette tip of 200 μL, washed with PBS 3 times, added into a DMEM medium containing 10% fetal bovine serum, and then added with corresponding dosages of a quercetin 3,3′-dimethyl ether solution (the dosage of osteosarcoma cells was 143B: 4 mg/L, HOS: 4 mg/L, U2: 10 mg/L; the dosage of breast cancer cells was MDA-MB-231: 2 mg/L, T47D: 3 mg/L; the dosage of gastric cancer cells was SGC7901: 6 mg/L, BGC823: 5 mg/L, AGS: 3 mg/L; the dosage of cervical cancer Hela cells was 2 mg/L; the dosage of lung cancer cell A549 was 3 mg/L; the dosage of intestinal cancer cells Caco2 was 4 mg/L; the dosage of mouse glioma BV2 was 4 mg/L; the dosage of human prostate cancer cells PC3 was 6 mg/L; and the dosage of human thyroid cancer cells BCPAP was 2 mg/L), while DMSO was used as a solvent control, and then incubated for 24 h. A scratch width and a measurement width were determined under a microscope, and a scratch closure ratio was calculated as follows: scratch closure ratio=(scratch width−measurement width)/scratch width×100%. Scratch inhibition ratio=(scratch closure ratio of control group−scratch closure ratio of treatment group)/scratch closure ratio of control group×100%.

[1] = tested on: cervical cancer cells Hela; test: in vitro cell proliferation inhibition (CCK-8); details: Homo sapiens, 48 h incubation, read-out: IC50
From the text: (§1) Osteosarcoma cell line 143B, HOS, and U2, liver cancer cell line HepG2, breast cancer cell line MDA-MB-231 and T47D, gastric cancer cell line AGS, BGC-823, and SGC-7901, cervical cancer cells Hela, lung cancer cells A549, intestinal cancer cells Caco2, mouse glioma cells BV-2, human prostate cancer cells PC3, human thyroid cancer cell line BCPAP, human normal liver cell line L02, human normal gastric cell line GES, human umbilical vein epithelial cells HUVEC, and human embryonic lung fibroblasts WI-38 were cultured in a DMEM medium containing 10% fetal bovine serum and 1×HEPES in a humid incubator (37° C., 5% CO2). The cells were passaged with trypsin-EDTA in logarithmic phase. Certain density of cells (AGS, T47D, Caco2, BCPAP, GES, HUVEC 1×10^5 cells per well; HepG2, MDA-MB-231, BGC-823, A549, PC3, L02 8×10^4 cells per well; 143B, HOS, U2, SGC-7901, Hela, BV-2, 5×10^4 cells per well; WI-38, 3×10^5 cells per well) were inoculated in a 96-well plate, and cultured for 24 h before treatment. After replacing a fresh medium, 12.5 mg/L to 400 mg/L of quercetin, quercetin 3-methyl ether, and quercetin 3,3′-dimethyl ether dissolved with DMSO were added into the medium (a final volume ratio was 0.1%, and the DMSO was used as a […]). After incubation for 48 h, a complete medium was replaced with a serum-free medium containing 10% CCK-8 reagent. The absorbance at 450 nm and 620 nm was measured separately after the cells were incubated for 1 h. Each experiment was repeated three times independently.
as §1, with “400 mg/L,” for “400 mg/L”, “of” for “of quercetin, quercetin 3-methyl ether, and”, “DMSO was” for “DMSO were”, “into a” for “into the”

lung cancer cells A549 = test: in vitro cell proliferation inhibition (CCK-8); details: Homo sapiens, 48 h incubation, read-out: IC50
From the text: as §1
as §1, with “400 mg/L,” for “400 mg/L”, “of” for “of quercetin, quercetin 3-methyl ether, and”, “DMSO was” for “DMSO were”, “into a” for “into the”

[2] = tested on: gastric cancer cell line BGC-823; test: in vitro cell proliferation inhibition (CCK-8); details: Homo sapiens, BGC-823, BGC823, 48 h incubation, read-out: IC50
From the text: as §1
as §1, with “400 mg/L,” for “400 mg/L”, “of” for “of quercetin, quercetin 3-methyl ether, and”, “DMSO was” for “DMSO were”, “into a” for “into the”

[3] = tested on: Osteosarcoma cell line U2; test: in vitro cell proliferation inhibition (CCK-8); details: 48 h incubation, read-out: IC50
From the text: as §1
as §1, with “400 mg/L,” for “400 mg/L”, “of” for “of quercetin, quercetin 3-methyl ether, and”, “DMSO was” for “DMSO were”, “into a” for “into the”

[4] = tested on: breast cancer cell line T47D; test: in vitro cell proliferation inhibition (CCK-8); details: Homo sapiens, 48 h incubation, read-out: IC50
From the text: as §1
as §1, with “400 mg/L,” for “400 mg/L”, “of” for “of quercetin, quercetin 3-methyl ether, and”, “DMSO was” for “DMSO were”, “into a” for “into the”

[5] = tested on: intestinal cancer cells Caco2; test: in vitro cell proliferation inhibition (CCK-8); details: Homo sapiens, Caco-2, 48 h incubation, read-out: IC50
From the text: as §1
as §1, with “400 mg/L,” for “400 mg/L”, “of” for “of quercetin, quercetin 3-methyl ether, and”, “DMSO was” for “DMSO were”, “into a” for “into the”

[6] = tested on: human thyroid cancer cell line BCPAP; test: in vitro cell proliferation inhibition (CCK-8); details: Homo sapiens, 48 h incubation, read-out: IC50
From the text: as §1
as §1, with “400 mg/L,” for “400 mg/L”, “of” for “of quercetin, quercetin 3-methyl ether, and”, “DMSO was” for “DMSO were”, “into a” for “into the”

[7] = tested on: gastric cancer cell line AGS; test: in vitro cell proliferation inhibition (CCK-8); details: 48 h incubation, read-out: IC50
From the text: as §1
as §1, with “400 mg/L,” for “400 mg/L”, “of” for “of quercetin, quercetin 3-methyl ether, and”, “DMSO was” for “DMSO were”, “into a” for “into the”

[8] = tested on: Osteosarcoma cell line HOS; test: in vitro cell proliferation inhibition (CCK-8); details: 48 h incubation, read-out: IC50
From the text: as §1
as §1, with “400 mg/L,” for “400 mg/L”, “of” for “of quercetin, quercetin 3-methyl ether, and”, “DMSO was” for “DMSO were”, “into a” for “into the”

[9] = tested on: Osteosarcoma cell line 143B; test: in vitro cell proliferation inhibition (CCK-8); details: Homo sapiens, 48 h incubation, read-out: IC50
From the text: as §1
as §1, with “400 mg/L,” for “400 mg/L”, “of” for “of quercetin, quercetin 3-methyl ether, and”, “DMSO was” for “DMSO were”, “into a” for “into the”

[10] = tested on: breast cancer cell line MDA-MB-231; test: in vitro cell proliferation inhibition (CCK-8); details: Homo sapiens, 48 h incubation, read-out: IC50
From the text: as §1
as §1, with “400 mg/L,” for “400 mg/L”, “of” for “of quercetin, quercetin 3-methyl ether, and”, “DMSO was” for “DMSO were”, “into a” for “into the”

[11] = tested on: human prostate cancer cells PC3; test: in vitro cell proliferation inhibition (CCK-8); details: Homo sapiens, 48 h incubation, read-out: IC50
From the text: as §1
as §1, with “400 mg/L,” for “400 mg/L”, “of” for “of quercetin, quercetin 3-methyl ether, and”, “DMSO was” for “DMSO were”, “into a” for “into the”

mouse glioma cells BV-2 = test: in vitro cell proliferation inhibition (CCK-8); details: Mus musculus, Glioma cell, BV2, 48 h incubation, read-out: IC50
From the text: as §1
as §1, with “400 mg/L,” for “400 mg/L”, “of” for “of quercetin, quercetin 3-methyl ether, and”, “DMSO was” for “DMSO were”, “into a” for “into the”

IC50 [1]: 11.1 µg/mL (≈ 33.7 µM)
IC50 (lung cancer cells A549): 17.4 µg/mL (≈ 52.6 µM)
IC50 [2]: 26.1 µg/mL (≈ 78.9 µM)
IC50 [3]: 49.5 µg/mL (≈ 150 µM)
IC50 [4]: 13.3 µg/mL (≈ 40.4 µM)
IC50 [5]: 21.4 µg/mL (≈ 64.8 µM)
IC50 [6]: 12.3 µg/mL (≈ 37.2 µM)
IC50 [7]: 15.8 µg/mL (≈ 47.9 µM)
IC50 [8]: 18.6 µg/mL (≈ 56.3 µM)
IC50 [9]: 21.6 µg/mL (≈ 65.5 µM)
IC50 [10]: 11.4 µg/mL (≈ 34.5 µM)
IC50 [11]: 31.3 µg/mL (≈ 94.7 µM)
IC50 (mouse glioma cells BV-2): 21.1 µg/mL (≈ 63.9 µM)
SMILES: COc1cc(-c2oc3cc(O)cc(O)c3c(=O)c2OC)ccc1O [Quercetin 3,3′-dimethyl ether, quercetin 3,3′-dimethyl ether]
Treatment scratch closed % (mouse glioma BV2; BV-2): 21.17 ± 8.55 %
inhibition at 4 µg/mL (mouse glioma BV2; Mus musculus, BV2, versus control group, read-out: inhibition rate of scratch closure): 75.2%
